# Tested on: MIAPACA2 cells
# Assay: CellTiter-Glo viability and CalcuSyn synergy, PRMT5 inhibitor + sotorasib, 6 days (Example 15)
# Assay type: cell-based
# Design: key: CI<1 synergy, CI=1 additivity, CI>1 antagonism
# Procedure: Raw luminescent values were converted to fraction affected (Fa) with the following equation: […]
# Synergy analysis was performed using the CalcuSyn software to determine CI scores based on the drug concentrations used and corresponding Fa values. Results are shown in Table 24 below. *CI Values (Calcusyn): CI<1 indicates synergy. C=1 indicates additivity. C>1 indicates antagonism.
smiles,measurement,setting,value
Cc1cc2cc(C(=O)N(Cc3ccc(C(F)(F)F)cn3)[C@@H](C)c3ncccn3)ccc2nc1N [Compound B],CI score,Compound B 0.018 μM + sotorasib 0.006 μM,0.68
same,CI score,Compound B 0.018 μM + sotorasib 0.010 μM,0.73
same,CI score,Compound B 0.018 μM + sotorasib 0.015 μM,0.64
same,CI score,Compound B 0.018 μM + sotorasib 0.024 μM,0.80
same,CI score,Compound B 0.018 μM + sotorasib 0.039 μM,0.77
same,CI score,Compound B 0.018 μM + sotorasib 0.063 μM,0.93
same,CI score,Compound B 0.018 μM + sotorasib 0.100 μM,1.25
same,CI score,Compound B 0.034 μM + sotorasib 0.006 μM,0.55
same,CI score,Compound B 0.034 μM + sotorasib 0.010 μM,0.59
same,CI score,Compound B 0.034 μM + sotorasib 0.015 μM,0.56
same,CI score,Compound B 0.034 μM + sotorasib 0.024 μM,0.76
same,CI score,Compound B 0.034 μM + sotorasib 0.039 μM,0.79
same,CI score,Compound B 0.034 μM + sotorasib 0.063 μM,0.83
same,CI score,Compound B 0.034 μM + sotorasib 0.100 μM,1.43
same,CI score,Compound B 0.064 μM + sotorasib 0.006 μM,0.52
same,CI score,Compound B 0.064 μM + sotorasib 0.010 μM,0.65
same,CI score,Compound B 0.064 μM + sotorasib 0.015 μM,0.68
same,CI score,Compound B 0.064 μM + sotorasib 0.024 μM,0.53
same,CI score,Compound B 0.064 μM + sotorasib 0.039 μM,0.72
same,CI score,Compound B 0.064 μM + sotorasib 0.063 μM,0.75
same,CI score,Compound B 0.064 μM + sotorasib 0.100 μM,1.24
same,CI score,Compound B 0.121 μM + sotorasib 0.006 μM,0.63
same,CI score,Compound B 0.121 μM + sotorasib 0.010 μM,0.71
same,CI score,Compound B 0.121 μM + sotorasib 0.015 μM,0.53
same,CI score,Compound B 0.121 μM + sotorasib 0.024 μM,0.64
same,CI score,Compound B 0.121 μM + sotorasib 0.039 μM,0.67
same,CI score,Compound B 0.121 μM + sotorasib 0.063 μM,0.96
same,CI score,Compound B 0.121 μM + sotorasib 0.100 μM,1.02
same,CI score,Compound B 0.230 μM + sotorasib 0.006 μM,0.65
same,CI score,Compound B 0.230 μM + sotorasib 0.010 μM,0.63
same,CI score,Compound B 0.230 μM + sotorasib 0.015 μM,0.55
same,CI score,Compound B 0.230 μM + sotorasib 0.024 μM,0.51
same,CI score,Compound B 0.230 μM + sotorasib 0.039 μM,0.71
same,CI score,Compound B 0.230 μM + sotorasib 0.063 μM,0.72
same,CI score,Compound B 0.230 μM + sotorasib 0.100 μM,1.00
same,CI score,Compound B 0.437 μM + sotorasib 0.006 μM,0.55
same,CI score,Compound B 0.437 μM + sotorasib 0.010 μM,0.70
same,CI score,Compound B 0.437 μM + sotorasib 0.015 μM,0.52
same,CI score,Compound B 0.437 μM + sotorasib 0.024 μM,0.61
same,CI score,Compound B 0.437 μM + sotorasib 0.039 μM,0.65
same,CI score,Compound B 0.437 μM + sotorasib 0.063 μM,0.67
same,CI score,Compound B 0.437 μM + sotorasib 0.100 μM,1.06
same,CI score,Compound B 0.831 μM + sotorasib 0.006 μM,0.83
same,CI score,Compound B 0.831 μM + sotorasib 0.010 μM,0.85
same,CI score,Compound B 0.831 μM + sotorasib 0.015 μM,0.68
same,CI score,Compound B 0.831 μM + sotorasib 0.024 μM,0.65
same,CI score,Compound B 0.831 μM + sotorasib 0.039 μM,0.75
same,CI score,Compound B 0.831 μM + sotorasib 0.063 μM,0.89
same,CI score,Compound B 0.831 μM + sotorasib 0.100 μM,1.15
same,CI score,Compound B 1.579 μM + sotorasib 0.006 μM,1.30
same,CI score,Compound B 1.579 μM + sotorasib 0.010 μM,1.37
same,CI score,Compound B 1.579 μM + sotorasib 0.015 μM,0.95
same,CI score,Compound B 1.579 μM + sotorasib 0.024 μM,0.91
same,CI score,Compound B 1.579 μM + sotorasib 0.039 μM,0.95
same,CI score,Compound B 1.579 μM + sotorasib 0.063 μM,0.98
same,CI score,Compound B 1.579 μM + sotorasib 0.100 μM,1.25

# From US20260373156A1, “CANCER TREATMENTS USING MTA-COOPERATIVE PRMT5 INHIBITORS” (AMGEN INC., priority 2022, published 2026)
